Test system: YAP-TEAD
Assay: TEAD inhibition, Hippo Pathway TEAD Reporter MCF-7 luciferase assay
Assay type: cell-based
Conditions: Homo sapiens, MCF7, 24 h, Hippo Pathway TEAD Reporter MCF-7 cells, luciferase activity after 24 h; read-out: IC50 of the test compounds on YAP-TEAD inhibition (Group)
In short: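 MCF-7 cells carrying a TEAD-responsive firefly luciferase reporter, with nuclear YAP1 driving constitutive expression, were treated the day after plating with compounds (11 concentrations, 4 replicates; 0.1% DMSO control). After 24 h, luciferase was read by ONE-Glo luminescence and IC50 determined.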

| IC50 | SMILES |
| --- | --- |
| < 50 nM | COc1ccc(Oc2cccc(Br)c2)cc1NC(=O)C1CCC(=O)N1C (stereo not shown) [Compound 299, N-(5-(3-Bromophenoxy)-2-methoxyphenyl)-1-methyl-5-oxopyrrolidine-2-carboxamide] |
| < 50 nM | COc1ccc(Oc2ccc(Cl)cc2)cc1NC(=O)C1CCC(=O)N1C (stereo not shown) [Compound 304, N-(5-(4-Chlorophenoxy)-2-methoxyphenyl)-1-methyl-5-oxopyrrolidine-2-carboxamide] |
| < 50 nM | COc1ccc(Oc2ccc(Cl)c(F)c2)cc1NC(=O)C1CCC(=O)N1C (stereo not shown) [Compound 305, N-(5-(4-Chloro-3-fluorophenoxy)-2-methoxyphenyl)-1-methyl-5-oxopyrrolidine-2-carboxamide] |
| < 50 nM | COc1ccc(Oc2ccc(Cl)cc2)cc1NC(=O)[C@@H]1CCC(=O)N1C [Compound 307, (S)—N-(5-(4-Chlorophenoxy)-2-methoxyphenyl)-1-methyl-5-oxopyrrolidine-2-carboxamide] |
| < 50 nM | COc1ccc(Oc2ccc(Cl)cc2)cc1NC(=O)[C@H]1CCC(=O)N1C [Compound 308, (R)—N-(5-(4-Chlorophenoxy)-2-methoxyphenyl)-1-methyl-5-oxopyrrolidine-2-carboxamide] |
| 50 to 300 nM | COc1ccc(Oc2ccc(C#N)c(Cl)c2)cc1NC(=O)C1CCC(=O)N1C (stereo not shown) [Compound 309, N-(5-(3-Chloro-4-cyanophenoxy)-2-methoxyphenyl)-1-methyl-5-oxopyrrolidine-2-carboxamide] |
| 50 to 300 nM | COc1ccc(Oc2ccc(C#N)c(Cl)c2)cc1NC(=O)[C@@H]1CCC(=O)N1C [Compound 310, (S)—N-(5-(3-Chloro-4-cyanophenoxy)-2-methoxyphenyl)-1-methyl-5-oxo-pyrrolidine-2-carboxamide] |
| < 50 nM | COc1ccc(Oc2ccc(Cl)c(F)c2)cc1NC(=O)[C@@H]1CCC(=O)N1C [Compound 312, (S)—N-(5-(4-Chloro-3-fluorophenoxy)-2-methoxyphenyl)-1-methyl-5-oxo-pyrrolidine-2-carboxamide] |
| < 50 nM | COc1ccc(Oc2ccc(C(F)F)cc2)cc1NC(=O)[C@@H]1CCC(=O)N1C [Compound 313, (S)—N-(5-(4-(Difluoromethyl)phenoxy)-2-methoxyphenyl)-1-methyl-5-oxo-pyrrolidine-2-carboxamide] |
| 50 to 300 nM | COc1ccc(Oc2ccc3c(c2)CCO3)cc1NC(=O)C1CCC(=O)N1C (stereo not shown) [Compound 315, N-(5-((2,3-Dihydrobenzofuran-5-yl)oxy)-2-methoxyphenyl)-1-methyl-5-oxopyrrolidine-2-carboxamide] |
| < 50 nM | COc1ccc(Oc2cccc(Cl)c2)cc1NC(=O)C1CCC(=O)N1C (stereo not shown) [Compound 316, N-(5-(3-Chlorophenoxy)-2-methoxyphenyl)-1-methyl-5-oxopyrrolidine-2-carboxamide] |
| < 50 nM | COc1ccc(Oc2ccc(C(F)F)cc2)cc1NC(=O)[C@H]1CCC(=O)N1C [Compound 319, (R)—N-(5-(4-(Difluoromethyl)phenoxy)-2-methoxyphenyl)-1-methyl-5-oxo-pyrrolidine-2-carboxamide] |
| 50 to 300 nM | COc1ccc(Oc2ccc(F)c(F)c2)cc1NC(=O)C1CCCC(=O)N1C (stereo not shown) [Compound 321, N-(5-(3,4-Difluorophenoxy)-2-methoxyphenyl)-1-methyl-6-oxopiperidine-2-carboxamide] |

Further lines, the compound ahead of its results:

| SMILES | IC50 |
| --- | --- |
| COc1ccc(Oc2ccc(OC(F)(F)F)cc2)cc1NC(=O)C1CCC(=O)N1 (stereo not shown) [Compound 300, N-(2-Methoxy-5-(4-(trifluoromethoxy)phenoxy)phenyl)-5-oxopyrrolidine-2-carboxamide] | < 50 nM |
| COc1ccc(Oc2ccc(OC(C)C)cc2)cc1NC(=O)C1CCC(=O)N1 (stereo not shown) [Compound 301, N-(5-(4-Isopropoxyphenoxy)-2-methoxyphenyl)-5-oxopyrrolidine-2-carboxamide] | 301 to 2000 nM |
| COc1ccc(OCC2CC(F)(F)C2)cc1NC(=O)C1CCC(=O)N1C (stereo not shown) [Compound 302, N-(5-((3,3-Difluorocyclobutyl)methoxy)-2-methoxyphenyl)-1-methyl-5-oxopyrrolidine-2-carboxamide] | 301 to 2000 nM |
| CN1C(=O)CCC1C(=O)Nc1cc(Oc2ccc(F)cc2)cc(C(F)(F)F)c1 (stereo not shown) [Compound 303, N-(3-(4-Fluorophenoxy)-5-(trifluoromethyl)phenyl)-1-methyl-5-oxopyrrolidine-2-carboxamide] | 301 to 2000 nM |
| CN1C(=O)CCC1C(=O)Nc1cc(C#N)cc(Oc2ccc(C(F)(F)F)cc2)c1 (stereo not shown) [Compound 306, N-(3-Cyano-5-(4-(trifluoromethyl)phenoxy)phenyl)-1-methyl-5-oxopyrrolidine-2-carboxamide] | 301 to 2000 nM |
| COc1ccc(Oc2ccc(C(F)(F)F)cc2)cc1NC(=O)[C@@H]1CCCN1S(C)(=O)=O [Compound 311, (S)—N-(2-Methoxy-5-(4-(trifluoromethyl)phenoxy)phenyl)-1-(methylsulfonyl)-pyrrolidine-2-carboxamide] | 301 to 2000 nM |
| COCCN1C(=O)CCC1C(=O)Nc1cc(Oc2ccc(C(F)(F)F)cc2)ccc1OC (stereo not shown) [Compound 318, N-(2-Methoxy-5-(4-(trifluoromethyl)phenoxy)phenyl)-1-(2-methoxyethyl)-5-oxopyrrolidine-2-carboxamide] | < 50 nM |
| COc1ccc(Oc2ccc(C(F)(F)F)cc2)cc1NC(=O)C1CCCC(=O)N1C (stereo not shown) [Compound 320, N-(2-Methoxy-5-(4-(trifluoromethyl)phenoxy)phenyl)-1-methyl-6-oxo-piperidine-2-carboxamide] | < 50 nM |
| COc1ccc(Oc2ccc(C(F)(F)F)cc2)cc1NC(=O)C1CCNC(=O)C1 (stereo not shown) [Compound 322, N-(2-Methoxy-5-(4-(trifluoromethyl)phenoxy)phenyl)-2-oxopiperidine-4-carboxamide] | < 50 nM |
| COc1ccc(Oc2ccc(C(F)(F)F)cc2)cc1NC(=O)C1CCN(C)C(=O)C1 (stereo not shown) [Compound 323, N-(2-Methoxy-5-(4-(trifluoromethyl)phenoxy)phenyl)-1-methyl-2-oxo-piperidine-4-carboxamide] | 301 to 2000 nM |
| COc1ccc(Oc2ccc(C(F)(F)F)cc2)cc1NC(=O)C1CCN(S(C)(=O)=O)C1 (stereo not shown) [Compound 326, N-(2-Methoxy-5-(4-(trifluoromethyl)phenoxy)phenyl)-1-(methylsulfonyl)-pyrrolidine-3-carboxamide] | 301 to 2000 nM |
| COc1ccc(Oc2cc(C(F)(F)F)ccn2)cc1NC(=O)C1CCNC(=O)C1 (stereo not shown) [Compound 327, N-(2-methoxy-5-((4-(trifluoromethyl)pyridin-2-yl)oxy)phenyl)-2-oxopiperidine-4-carboxamide] | 301 to 2000 nM |
| CN1C(=O)CCC1C(=O)Nc1cc(Oc2ccc(OC(F)(F)F)cc2)ccc1F (stereo not shown) [Compound 328, N-(2-Fluoro-5-(4-(trifluoromethoxy)phenoxy)phenyl)-1-methyl-S-oxopyrrolidine-2-carboxamide] | 50 to 300 nM |
| CN1C(=O)CCC1C(=O)Nc1cc(Oc2ccc(OC(F)(F)F)cc2)ccc1Cl (stereo not shown) [Compound 329, N-(2-Chloro-5-(4-(trifluoromethoxy)phenoxy)phenyl)-1-methyl-5-oxo-pyrrolidine-2-carboxamide] | 301 to 2000 nM |
| CN1C(=O)CCC1C(=O)Nc1cc(Oc2ccc(C(F)(F)F)cc2)ccc1C(N)=O (stereo not shown) [Compound 330, N-(2-Carbamoyl-5-(4-(trifluoromethyl)phenoxy)phenyl)-1-methyl-5-oxopyrrolidine-2-carboxamide] | 301 to 2000 nM |

Source: patent US20240246908A1 (ORION CORPORATION, priority 2021, published 2024)
